Columns and labels:
Format in all cases: in vivo
Ambrosia artemisifolia [1] = experiment: Herbicidal activity, preemergence test; settings: pre; sprayed onto soil, 800 g of active material per hectare; evaluated 3 weeks after treatment
Description: (§1) To evaluate their herbicidal activity, compounds according to the invention are tested using a representative range of plants: TRZAW Triticum aestivum HORVW Hordeum vulgare ZEAMX Zea mays GOSHI Gossypium hirsutum HELAN Helianthus annuus GLYMA Glycine max ALOMY Alopecurus myosuroides SETVI Setaria viridis ECHCG Echinochloa crus-galli GALAP Galium aparine STEME Stellaria media VERPE Veronica persica VIOAR Viola arvensis IPOHE Ipomoea hederacea LAMPU Lamium purpureum PAPRH Papaver rhoeas MATIN Matricaria inodora AMARE Amaranthus retroflexus ABUTH Abutilon theophrasti AMBEL Ambrosia artemisifolia CHEAL Chenopodium album
(§2) The tests fall into two categories, preemergence and postemergence. The preemergence tests involve spraying a liquid formulation of the compound onto the soil in which the seeds have recently been sown. The postemergence tests involve spraying a liquid formulation of the compound onto seedling plants.
(§3) The soil used in the tests is a prepared horticultural loam.
(§4) The formulations used in the tests are prepared from solutions of the test compounds in acetone containing 0.4% by weight of an alkylphenol/ethylene oxide condensate available under the trade mark TRITON X-155. These acetone solutions are diluted with water and the resulting formulations applied at dosage levels corresponding to 800 g of active material per hectare in a volume equivalent to 900 litres per hectare.
(§5) In the preemergence tests untreated sown soil and in the postemergence tests untreated soil bearing seedling plants are used as controls.
(§6) Results of herbicide evaluation are expressed on a rating scale (0-9). The scale is based upon a visual observation of plant stand, vigor, malformation, size, chlorosis, and general plant appearance as compared to a control. Preemergence and postemergence treatments are evaluated at 3 and 2 weeks after treatment, respectively.

Setaria viridis [2] = experiment: Herbicidal activity, preemergence test; settings: pre; sprayed onto soil, 800 g of active material per hectare; evaluated 3 weeks after treatment
Description: as §1, §2, §3, §4, §5, §6

Gossypium hirsutum [3] = experiment: Herbicidal activity, preemergence test; settings: pre; sprayed onto soil, 800 g of active material per hectare; evaluated 3 weeks after treatment
Description: as §1, §2, §3, §4, §5, §6

Zea mays [4] = experiment: Herbicidal activity, preemergence test; settings: pre; sprayed onto soil, 800 g of active material per hectare; evaluated 3 weeks after treatment
Description: as §1, §2, §3, §4, §5, §6

Amaranthus retroflexus [5] = experiment: Herbicidal activity, preemergence test; settings: pre; sprayed onto soil, 800 g of active material per hectare; evaluated 3 weeks after treatment
Description: as §1, §2, §3, §4, §5, §6

Alopecurus myosuroides [6] = experiment: Herbicidal activity, preemergence test; settings: pre; sprayed onto soil, 800 g of active material per hectare; evaluated 3 weeks after treatment
Description: as §1, §2, §3, §4, §5, §6

Ipomoea hederacea [7] = experiment: Herbicidal activity, preemergence test; settings: pre; sprayed onto soil, 800 g of active material per hectare; evaluated 3 weeks after treatment
Description: as §1, §2, §3, §4, §5, §6

Papaver rhoeas [8] = experiment: Herbicidal activity, preemergence test; settings: pre; sprayed onto soil, 800 g of active material per hectare; evaluated 3 weeks after treatment
Description: as §1, §2, §3, §4, §5, §6

Hordeum vulgare [9] = experiment: Herbicidal activity, preemergence test; settings: pre; sprayed onto soil, 800 g of active material per hectare; evaluated 3 weeks after treatment
Description: as §1, §2, §3, §4, §5, §6

Matricaria inodora [10] = experiment: Herbicidal activity, preemergence test; settings: pre; sprayed onto soil, 800 g of active material per hectare; evaluated 3 weeks after treatment
Description: as §1, §2, §3, §4, §5, §6

Abutilon theophrasti [11] = experiment: Herbicidal activity, preemergence test; settings: pre; sprayed onto soil, 800 g of active material per hectare; evaluated 3 weeks after treatment
Description: as §1, §2, §3, §4, §5, §6

Galium aparine [12] = experiment: Herbicidal activity, preemergence test; settings: pre; sprayed onto soil, 800 g of active material per hectare; evaluated 3 weeks after treatment
Description: as §1, §2, §3, §4, §5, §6

Veronica persica [13] = experiment: Herbicidal activity, preemergence test; settings: pre; sprayed onto soil, 800 g of active material per hectare; evaluated 3 weeks after treatment
Description: as §1, §2, §3, §4, §5, §6

Lamium purpureum [14] = experiment: Herbicidal activity, preemergence test; settings: pre; sprayed onto soil, 800 g of active material per hectare; evaluated 3 weeks after treatment
Description: as §1, §2, §3, §4, §5, §6

Triticum aestivum [15] = experiment: Herbicidal activity, preemergence test; settings: pre; sprayed onto soil, 800 g of active material per hectare; evaluated 3 weeks after treatment
Description: as §1, §2, §3, §4, §5, §6

Glycine max [16] = experiment: Herbicidal activity, preemergence test; settings: pre; sprayed onto soil, 800 g of active material per hectare; evaluated 3 weeks after treatment
Description: as §1, §2, §3, §4, §5, §6

Stellaria media [17] = experiment: Herbicidal activity, preemergence test; settings: pre; sprayed onto soil, 800 g of active material per hectare; evaluated 3 weeks after treatment
Description: as §1, §2, §3, §4, §5, §6

Chenopodium album [18] = experiment: Herbicidal activity, preemergence test; settings: pre; sprayed onto soil, 800 g of active material per hectare; evaluated 3 weeks after treatment
Description: as §1, §2, §3, §4, §5, §6

Ambrosia artemisifolia [19] = experiment: Herbicidal activity, postemergence test; settings: post; sprayed onto seedling plants, 800 g of active material per hectare; evaluated 2 weeks after treatment
Description: as §1, §2, §3, §4, §5, §6

Setaria viridis [20] = experiment: Herbicidal activity, postemergence test; settings: post; sprayed onto seedling plants, 800 g of active material per hectare; evaluated 2 weeks after treatment
Description: as §1, §2, §3, §4, §5, §6

Gossypium hirsutum [21] = experiment: Herbicidal activity, postemergence test; settings: post; sprayed onto seedling plants, 800 g of active material per hectare; evaluated 2 weeks after treatment
Description: as §1, §2, §3, §4, §5, §6

Zea mays [22] = experiment: Herbicidal activity, postemergence test; settings: post; sprayed onto seedling plants, 800 g of active material per hectare; evaluated 2 weeks after treatment
Description: as §1, §2, §3, §4, §5, §6

Amaranthus retroflexus [23] = experiment: Herbicidal activity, postemergence test; settings: post; sprayed onto seedling plants, 800 g of active material per hectare; evaluated 2 weeks after treatment
Description: as §1, §2, §3, §4, §5, §6

Alopecurus myosuroides [24] = experiment: Herbicidal activity, postemergence test; settings: post; sprayed onto seedling plants, 800 g of active material per hectare; evaluated 2 weeks after treatment
Description: as §1, §2, §3, §4, §5, §6

Ipomoea hederacea [25] = experiment: Herbicidal activity, postemergence test; settings: post; sprayed onto seedling plants, 800 g of active material per hectare; evaluated 2 weeks after treatment
Description: as §1, §2, §3, §4, §5, §6

Papaver rhoeas [26] = experiment: Herbicidal activity, postemergence test; settings: post; sprayed onto seedling plants, 800 g of active material per hectare; evaluated 2 weeks after treatment
Description: as §1, §2, §3, §4, §5, §6

Hordeum vulgare [27] = experiment: Herbicidal activity, postemergence test; settings: post; sprayed onto seedling plants, 800 g of active material per hectare; evaluated 2 weeks after treatment
Description: as §1, §2, §3, §4, §5, §6

Matricaria inodora [28] = experiment: Herbicidal activity, postemergence test; settings: post; sprayed onto seedling plants, 800 g of active material per hectare; evaluated 2 weeks after treatment
Description: as §1, §2, §3, §4, §5, §6

Abutilon theophrasti [29] = experiment: Herbicidal activity, postemergence test; settings: post; sprayed onto seedling plants, 800 g of active material per hectare; evaluated 2 weeks after treatment
Description: as §1, §2, §3, §4, §5, §6

Galium aparine [30] = experiment: Herbicidal activity, postemergence test; settings: post; sprayed onto seedling plants, 800 g of active material per hectare; evaluated 2 weeks after treatment
Description: as §1, §2, §3, §4, §5, §6

Veronica persica [31] = experiment: Herbicidal activity, postemergence test; settings: post; sprayed onto seedling plants, 800 g of active material per hectare; evaluated 2 weeks after treatment
Description: as §1, §2, §3, §4, §5, §6

Lamium purpureum [32] = experiment: Herbicidal activity, postemergence test; settings: post; sprayed onto seedling plants, 800 g of active material per hectare; evaluated 2 weeks after treatment
Description: as §1, §2, §3, §4, §5, §6

Triticum aestivum [33] = experiment: Herbicidal activity, postemergence test; settings: post; sprayed onto seedling plants, 800 g of active material per hectare; evaluated 2 weeks after treatment
Description: as §1, §2, §3, §4, §5, §6

Glycine max [34] = experiment: Herbicidal activity, postemergence test; settings: post; sprayed onto seedling plants, 800 g of active material per hectare; evaluated 2 weeks after treatment
Description: as §1, §2, §3, §4, §5, §6

Stellaria media [35] = experiment: Herbicidal activity, postemergence test; settings: post; sprayed onto seedling plants, 800 g of active material per hectare; evaluated 2 weeks after treatment
Description: as §1, §2, §3, §4, §5, §6

Chenopodium album [36] = experiment: Herbicidal activity, postemergence test; settings: post; sprayed onto seedling plants, 800 g of active material per hectare; evaluated 2 weeks after treatment
Description: as §1, §2, §3, §4, §5, §6

Structure (SMILES) | AMBEL control rating (0-9) (Ambrosia artemisifolia [1]) | SETVI control rating (0-9) (Setaria viridis [2]) | GOSHI control rating (0-9) (Gossypium hirsutum [3]) | ZEAMX control rating (0-9) (Zea mays [4]) | AMARE control rating (0-9) (Amaranthus retroflexus [5]) | ALOMY control rating (0-9) (Alopecurus myosuroides [6]) | IPOHE control rating (0-9) (Ipomoea hederacea [7]) | PAPRH control rating (0-9) (Papaver rhoeas [8]) | HORVW control rating (0-9) (Hordeum vulgare [9]) | MATIN control rating (0-9) (Matricaria inodora [10]) | ABUTH control rating (0-9) (Abutilon theophrasti [11]) | GALAP control rating (0-9) (Galium aparine [12]) | VERPE control rating (0-9) (Veronica persica [13]) | LAMPU control rating (0-9) (Lamium purpureum [14]) | TRZAW control rating (0-9) (Triticum aestivum [15]) | GLXMA control rating (0-9) (Glycine max [16]) | STEME control rating (0-9) (Stellaria media [17]) | CHEAL control rating (0-9) (Chenopodium album [18]) | AMBEL control rating (0-9) (Ambrosia artemisifolia [19]) | SETVI control rating (0-9) (Setaria viridis [20]) | further results
C[C@H](NC(=O)c1nnc(-c2c(Cl)cccc2Cl)o1)c1ccccc1 [Example 25] | 0 (no effect) | 0 (no effect) | 0 (no effect) | 0 (no effect) | 3 (moderate effect) | 0 (no effect) | 0 (no effect) | 3 (moderate effect) | 0 (no effect) | 0 (no effect) | 0 (no effect) | 0 (no effect) | 0 (no effect) | 0 (no effect) | 0 (no effect) | 0 (no effect) | 0 (no effect) | 0 (no effect) | 0 (no effect) | 0 (no effect) | GOSHI control rating (0-9) (Gossypium hirsutum [21]): 0 (no effect); ZEAMX control rating (0-9) (Zea mays [22]): 0 (no effect); AMARE control rating (0-9) (Amaranthus retroflexus [23]): 5 (definite injury); ALOMY control rating (0-9) (Alopecurus myosuroides [24]): 0 (no effect); IPOHE control rating (0-9) (Ipomoea hederacea [25]): 1 (trace effect); PAPRH control rating (0-9) (Papaver rhoeas [26]): 2 (slight effect); HORVW control rating (0-9) (Hordeum vulgare [27]): 0 (no effect); MATIN control rating (0-9) (Matricaria inodora [28]): 0 (no effect); ABUTH control rating (0-9) (Abutilon theophrasti [29]): 1 (trace effect); GALAP control rating (0-9) (Galium aparine [30]): 0 (no effect); VERPE control rating (0-9) (Veronica persica [31]): 0 (no effect); LAMPU control rating (0-9) (Lamium purpureum [32]): 1 (trace effect); TRZAW control rating (0-9) (Triticum aestivum [33]): 0 (no effect); GLXMA control rating (0-9) (Glycine max [34]): 1 (trace effect); STEME control rating (0-9) (Stellaria media [35]): 0 (no effect); CHEAL control rating (0-9) (Chenopodium album [36]): 5 (definite injury)
C[C@H](NC(=O)c1nnc(-c2c(F)cccc2F)o1)c1ccccc1 [Example 24] | 3 (moderate effect) | 8 (approaching complete kill) | 0 (no effect) | 0 (no effect) | 9 (complete kill) | 2 (slight effect) | 2 (slight effect) | 9 (complete kill) | 0 (no effect) | 9 (complete kill) | 7 (good herbicidal effect) | 0 (no effect) | 9 (complete kill) | 7 (good herbicidal effect) | 0 (no effect) | 0 (no effect) | 8 (approaching complete kill) | 8 (approaching complete kill) | 8 (approaching complete kill) | 6 (herbicidal effect) | GOSHI control rating (0-9) (Gossypium hirsutum [21]): 8 (approaching complete kill); ZEAMX control rating (0-9) (Zea mays [22]): 2 (slight effect); AMARE control rating (0-9) (Amaranthus retroflexus [23]): 9 (complete kill); ALOMY control rating (0-9) (Alopecurus myosuroides [24]): 2 (slight effect); IPOHE control rating (0-9) (Ipomoea hederacea [25]): 5 (definite injury); PAPRH control rating (0-9) (Papaver rhoeas [26]): 6 (herbicidal effect); HORVW control rating (0-9) (Hordeum vulgare [27]): 2 (slight effect); MATIN control rating (0-9) (Matricaria inodora [28]): 4 (injury); ABUTH control rating (0-9) (Abutilon theophrasti [29]): 9 (complete kill); GALAP control rating (0-9) (Galium aparine [30]): 5 (definite injury); VERPE control rating (0-9) (Veronica persica [31]): 9 (complete kill); LAMPU control rating (0-9) (Lamium purpureum [32]): 8 (approaching complete kill); TRZAW control rating (0-9) (Triticum aestivum [33]): 3 (moderate effect); GLXMA control rating (0-9) (Glycine max [34]): 4 (injury); STEME control rating (0-9) (Stellaria media [35]): 8 (approaching complete kill); CHEAL control rating (0-9) (Chenopodium album [36]): 9 (complete kill)

Source: EP0726263A2, “Herbicidal (1,3,4)oxadiazoles and thiadiazoles” (American Cyanamid Company, priority 1995, dated 1996)
